Laboratory results reported in patent US20250136595A1, “ACYLATED HETEROCYCLIC QUINAZOLINE DERIVATIVES AS INHIBITORS OF ERBB2” (Enliven Inc., priority 2022, published 2025).

How the values were obtained:
Ba/F3 ERBB2 YVMA = Ba/F3 ERBB2 YVMA (Homo sapiens, UniProt P04626, DUP772-775, cells depend on it); experiment: Cell viability assay (CellTiter Glo) in Ba/F3 cells engineered to express ERBB2 YVMA; type: cell-based, mouse; settings: Ba/F3 cells expressing human ERBB2 YVMA mutant, 72 hours, % viability, read-out: Ba/F3 ERBB2 YVMA IC50
Method: Cells were treated with compounds, and cell viability was measured as a metric of kinase inhibition.
The Ba/F3 cell line is IL-3-dependent mouse cell line derived from the C3H mouse strain. Ba/F3 cell lines were engineered to express human ERBB2 or EGFR kinases, rendering the cells IL-3 independent. The lines were generated via retroviral transduction utilizing a Moloney murine leukemia virus (MMLV) promoter, and constructs are stably integrated into the cell genome. The sequences of the ERBB2 and EGFR genes used were NCBI Reference Sequences NM_004448.3 and NM_005228.3, respectively.
Similarly, Ba/F3 cell lines engineered to express EGFR, ERBB2, or ERBB2 mutants were grown, harvested, counted and seeded at 3000 cells per well in 96-well plates for the data sets shown in Tables B3-B4. A subset of wells contained media only (low control, “LC”).
Table B1 provides the growth media and number of cells seeded per well for the each cell line.
Compounds were dissolved in DMSO and serially diluted. Serially-diluted compound or a DMSO only control (high control, “HC”) was added to the plated cells in each well. […] The final proportion of DMSO never exceeded 0.1%.
Plates were placed in a 37° C., 5% CO2 incubator for 72 hours. Plates were then removed from the incubator and equilibrated for 15 minutes at room temperature. 40 μl of CellTiter Glo reagent (Promega) was added to measure the relative level of metabolically active cells by quantifying intracellular ATP concentrations. Plates were incubated for 30 minutes at room temperature, and luminescence was measured. Percent viability was normalized to a vehicle control only using the following formula: % viability=100×(Lumsample−LumLC)/(LumHC−LumLC). Graphical curves were fitted using a nonlinear regression model with a sigmoidal dose response.

[1] = molecular target: T1, phosphorylated EGFR (pEGFR) (Homo sapiens, UniProt P00533); experiment: Detection of phosphorylated EGFR (pEGFR) in EGF-stimulated A431 cells (AlphaLISA); type: cell-based; settings: A431 cells (10% FBS), 4 hours incubation, EGF 30 ng/mL for 10 minutes
T1 construct: performed to measure phosphorylated EGFR levels using A431 cells; endogenous in cells; host or cells: A431
Method: Enzyme-linked immunosorbent assays (ELISA) were performed to measure phosphorylated EGFR levels using A431 cells (10% FBS). A431 (1.0*10^4 cells/40 μl/well) cells were seeded in 384 well. Compounds were dissolved in DMSO, serially diluted in DMSO and then were added, mixed, and incubated for 4 hours at 37° C., 5% CO2. Following the 4-hours incubation, cells were stimulated for 10 minutes with EGF (Invitrogen, cat #PHG0311) at a final concentration of 30 ng/mL in the incubator. The media was aspirated and cells were lysed in 10 μL lysis buffer with protease and phosphatase inhibitors (PerkinElmer, cat #ALSU-PEGFR-A50K). The plates were placed on a shaker for 5 minutes and then incubated for 30 min at 4° C. for complete lysis. The lysate was transferred to an Optiplate (Perkin Elmer, cat #6007290).
Acceptor mix (PerkinElmer, cat #ALSU-PEGFR-A50K) was prepared just before use and 5 μL was dispensed to all the wells, followed by a 1.5-2 h incubation at room temperature in dark. The donor mix (PerkinElmer, cat #ALSU-PEGFR-A50K) was prepared under low light conditions prior to use and 5 μl of donor mix was added to all the wells under subdued lighting or green filters. The plates were placed on a shaker for 5 min, sealed, and incubated overnight at room temperature in dark. Plates were read on the Envision (PerkinElmer) using standard AlphaLISA settings.
The percentage of inhibition on EGFR phosphorylation was calculated following equation: % Inhibition=100×(LumHC−LumSample)/(LumHC−LumLC). The low and high controls (LC/HC) are generated from lysate from wells with cells treated with DMSO or […] Staurosporine (BioAustralis, cat #BIA-S1086), […]. IC50 values were calculated by fitting the Curve using XLfit (v5.3.1.3), equation 201: Y=Bottom+ (Top−Bottom)/(1+10^((LogIC50−X)*HillSlope)).

[2] = molecular target: T2, phosphorylated ERBB2 (pERBB2) (Homo sapiens, UniProt P04626); experiment: Detection of phosphorylated ERBB2 (pERBB2) by ELISA in BT-474 cells; type: cell-based; settings: four hour incubation with compound
T2 construct: endogenous in cells; host or cells: BT-474
Method: BT-474 cells were seeded into a 96-well at 2.0*10^4 cells/100 μl/well. Compounds were dissolved and serially diluted in DMSO. The compounds were then were added, mixed, and incubated for four hours at 37° C., 5% CO2. Compounds were added using four-fold dilutions at final concentrations ranging from 10 μM to 0.01 nM. Following the four hour incubation with compounds, cell lysates were prepared. Plates were centrifuged for 5 min at 3000 RPM, and supernatant was removed from each well. Cells were washed 3 times by resuspension in 150 μl PBS, followed by centrifugation and removal of the supernatant, as above. […] Cells were incubated with lysis buffer for 1 hour at 4° C., and then stored at -80° C. Enzyme-linked immunosorbent assays (ELISA) were performed to measure phosphorylated ERBB2 levels. […] The next day, plates were washed with PBS+0.05% Tween20 (PBST). 150 μl of 5% BSA blocking solution was added for 1 hour at room temperature, with shaking. Plates were washed with PBST. Cell lysates were thawed and 100 μl of lysate was added to the ELISA plate. The plates were incubated for 2 hours at room temperature, with shaking. […] Plates were incubated for 1 hour at room temperature, with shaking. Plates were then washed with PBST, and 100 μl TMB substrate solution (R&D Systems, cat #DY999) was added. Plate were incubated in the dark for 20 minutes at room temperature. 50 μl of Stop solution (R&D Systems, cat #DY994) (50 μl) was added to each well and mixed. Optical density at 450 nm was read on an EnSpire plate reader (Perkin Elmer). The remaining kinase activity by calculated using the following formula: % Relative activity=100×([…]). The low and high control values (“LC” and “HC”) were generated from lysate from wells without cells or with cells treated with 0.1% DMSO, respectively.

T2 sequence (P04626 23-1255): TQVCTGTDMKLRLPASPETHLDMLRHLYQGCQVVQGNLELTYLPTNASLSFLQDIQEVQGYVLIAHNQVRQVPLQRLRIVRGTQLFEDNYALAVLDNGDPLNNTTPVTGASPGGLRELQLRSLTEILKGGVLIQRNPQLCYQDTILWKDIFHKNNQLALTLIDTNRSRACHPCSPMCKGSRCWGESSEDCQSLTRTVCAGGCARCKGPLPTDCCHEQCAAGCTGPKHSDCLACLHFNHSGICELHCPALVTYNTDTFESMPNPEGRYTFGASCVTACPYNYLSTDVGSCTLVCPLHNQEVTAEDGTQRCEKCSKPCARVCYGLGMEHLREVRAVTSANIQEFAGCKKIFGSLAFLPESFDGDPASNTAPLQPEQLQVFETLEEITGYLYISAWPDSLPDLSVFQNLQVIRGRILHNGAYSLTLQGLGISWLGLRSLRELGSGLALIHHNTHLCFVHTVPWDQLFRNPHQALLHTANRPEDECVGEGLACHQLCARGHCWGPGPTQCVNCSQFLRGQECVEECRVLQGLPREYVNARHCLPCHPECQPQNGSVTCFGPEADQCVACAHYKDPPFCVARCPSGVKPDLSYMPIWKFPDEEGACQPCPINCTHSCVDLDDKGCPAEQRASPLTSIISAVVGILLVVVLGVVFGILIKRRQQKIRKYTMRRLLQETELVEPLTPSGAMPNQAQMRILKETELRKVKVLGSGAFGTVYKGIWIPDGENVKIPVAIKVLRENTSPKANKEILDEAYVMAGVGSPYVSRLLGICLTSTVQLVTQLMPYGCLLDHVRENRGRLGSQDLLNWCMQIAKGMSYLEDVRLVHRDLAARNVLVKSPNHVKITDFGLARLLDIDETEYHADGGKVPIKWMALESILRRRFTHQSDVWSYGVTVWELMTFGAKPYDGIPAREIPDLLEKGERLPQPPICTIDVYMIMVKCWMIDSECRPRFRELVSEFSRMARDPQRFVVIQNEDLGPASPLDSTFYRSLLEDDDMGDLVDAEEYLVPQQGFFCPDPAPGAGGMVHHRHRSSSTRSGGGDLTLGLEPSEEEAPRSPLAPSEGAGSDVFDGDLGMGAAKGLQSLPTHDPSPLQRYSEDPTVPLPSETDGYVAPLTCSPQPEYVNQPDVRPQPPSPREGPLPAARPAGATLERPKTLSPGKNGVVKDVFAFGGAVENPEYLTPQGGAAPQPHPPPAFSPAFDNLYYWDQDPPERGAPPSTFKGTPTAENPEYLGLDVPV
Chain of Ba/F3 ERBB2 YVMA (P04626 with tags, fused parts or gaps DUP772-775): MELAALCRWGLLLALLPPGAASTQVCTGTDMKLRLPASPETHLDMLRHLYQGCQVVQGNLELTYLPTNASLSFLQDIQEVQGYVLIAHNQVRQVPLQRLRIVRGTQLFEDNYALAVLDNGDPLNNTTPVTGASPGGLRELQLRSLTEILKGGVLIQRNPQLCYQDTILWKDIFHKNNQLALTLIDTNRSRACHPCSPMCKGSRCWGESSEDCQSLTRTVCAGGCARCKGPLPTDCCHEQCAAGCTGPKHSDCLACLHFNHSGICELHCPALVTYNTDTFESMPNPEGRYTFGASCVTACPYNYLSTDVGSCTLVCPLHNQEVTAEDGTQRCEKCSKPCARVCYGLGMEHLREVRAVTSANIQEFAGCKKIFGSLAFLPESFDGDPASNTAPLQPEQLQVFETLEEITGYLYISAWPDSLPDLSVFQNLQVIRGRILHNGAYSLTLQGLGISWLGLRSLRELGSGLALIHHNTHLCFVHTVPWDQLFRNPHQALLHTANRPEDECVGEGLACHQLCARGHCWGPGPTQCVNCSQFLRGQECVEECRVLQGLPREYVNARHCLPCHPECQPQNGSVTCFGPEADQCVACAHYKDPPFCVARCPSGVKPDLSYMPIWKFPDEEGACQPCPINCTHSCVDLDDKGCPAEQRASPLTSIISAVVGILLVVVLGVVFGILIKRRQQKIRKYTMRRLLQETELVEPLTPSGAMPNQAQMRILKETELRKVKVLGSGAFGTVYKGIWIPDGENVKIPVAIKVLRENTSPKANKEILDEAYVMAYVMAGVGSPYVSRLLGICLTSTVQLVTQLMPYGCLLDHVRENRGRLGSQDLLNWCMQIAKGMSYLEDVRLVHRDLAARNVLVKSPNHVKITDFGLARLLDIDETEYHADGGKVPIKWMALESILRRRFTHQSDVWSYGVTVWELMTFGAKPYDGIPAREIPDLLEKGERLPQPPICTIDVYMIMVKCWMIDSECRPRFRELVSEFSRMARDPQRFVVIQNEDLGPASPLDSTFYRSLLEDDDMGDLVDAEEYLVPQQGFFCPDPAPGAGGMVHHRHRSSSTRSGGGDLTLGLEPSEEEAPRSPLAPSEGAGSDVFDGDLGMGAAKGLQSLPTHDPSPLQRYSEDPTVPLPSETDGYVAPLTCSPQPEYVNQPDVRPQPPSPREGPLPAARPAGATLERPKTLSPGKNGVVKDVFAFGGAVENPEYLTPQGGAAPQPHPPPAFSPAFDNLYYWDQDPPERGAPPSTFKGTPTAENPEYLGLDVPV
T1 sequence (P00533 25-1210): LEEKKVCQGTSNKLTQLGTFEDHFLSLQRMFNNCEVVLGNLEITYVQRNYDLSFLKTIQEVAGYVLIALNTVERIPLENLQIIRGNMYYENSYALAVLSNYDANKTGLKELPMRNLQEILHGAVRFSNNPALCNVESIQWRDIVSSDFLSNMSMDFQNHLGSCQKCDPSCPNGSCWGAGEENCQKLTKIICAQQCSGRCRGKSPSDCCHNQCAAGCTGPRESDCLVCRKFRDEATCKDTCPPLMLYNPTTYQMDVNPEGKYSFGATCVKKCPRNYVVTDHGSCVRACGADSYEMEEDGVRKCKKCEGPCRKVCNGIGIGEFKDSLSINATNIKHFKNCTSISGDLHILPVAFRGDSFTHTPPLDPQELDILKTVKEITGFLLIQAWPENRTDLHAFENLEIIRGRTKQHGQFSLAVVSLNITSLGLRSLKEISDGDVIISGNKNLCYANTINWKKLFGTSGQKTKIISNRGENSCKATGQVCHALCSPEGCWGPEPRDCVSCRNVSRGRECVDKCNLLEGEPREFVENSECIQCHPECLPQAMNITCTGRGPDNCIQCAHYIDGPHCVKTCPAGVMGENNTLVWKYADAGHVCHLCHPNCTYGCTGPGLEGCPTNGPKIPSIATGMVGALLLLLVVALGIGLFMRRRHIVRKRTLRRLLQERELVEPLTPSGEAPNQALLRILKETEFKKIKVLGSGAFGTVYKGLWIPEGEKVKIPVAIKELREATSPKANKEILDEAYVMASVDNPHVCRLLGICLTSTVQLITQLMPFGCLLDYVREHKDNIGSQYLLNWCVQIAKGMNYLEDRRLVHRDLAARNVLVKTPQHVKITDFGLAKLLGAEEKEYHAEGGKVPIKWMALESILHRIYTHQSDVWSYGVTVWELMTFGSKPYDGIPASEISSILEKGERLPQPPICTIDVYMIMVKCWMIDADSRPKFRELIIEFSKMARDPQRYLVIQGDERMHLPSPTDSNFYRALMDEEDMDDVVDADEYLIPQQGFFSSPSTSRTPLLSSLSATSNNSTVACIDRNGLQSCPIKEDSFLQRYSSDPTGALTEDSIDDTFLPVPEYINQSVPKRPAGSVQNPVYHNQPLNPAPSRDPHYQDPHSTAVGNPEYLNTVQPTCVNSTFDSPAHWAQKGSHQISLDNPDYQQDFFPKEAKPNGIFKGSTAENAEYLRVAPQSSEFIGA

| IC50 [1] | IC50 [2] | Structure (SMILES) | GI50 (Ba/F3 ERBB2 YVMA) |
| --- | --- | --- | --- |
| > 10000 nM | 47.7 nM | C=CC(=O)N1CCN(c2cc3c(Nc4ccc(Cc5ccn6ncnc6c5)c(C)c4)ncnc3cn2)[C@@H](C)C1 [Compound 85, (S)-1-(4-(4-((4-([1,2,4]triazolo[1,5-a]pyridin-7-ylmethyl)-3-methylphenyl)amino)pyrido[3,4-d]pyrimidin-6-yl)-3-methylpiperazin-1-yl)prop-2-en-1-one] | 69.7 nM |
| > 10000 nM | 45.3 nM | C=CC(=O)N1CCCC2(C1)CN(c1ccc3ncnc(Nc4ccc(Oc5ccn6ncnc6c5)c(C)c4)c3n1)C2 [Compound 46, 1-(2-{4-[(3-methyl-4-{[1,2,4]triazolo[1,5-a]pyridin-7-yloxy}phenyl)amino]pyrido[3,2-d]pyrimidin-6-yl}-2,6-diazaspiro[3.5]nonan-6-yl)prop-2-en-1-one] | 24.6 nM |
| 1670 nM | 20.9 nM | C=CC(=O)N1CCN(c2ccc3ncnc(Nc4ccc(Cc5ccn6ncnc6c5)c(C)c4)c3n2)C[C@H]1C [Compound 51, 1-[(2R)-2-methyl-4-{4-[(3-methyl-4-{[1,2,4]triazolo[1,5-a]pyridin-7-ylmethyl}phenyl)amino]pyrido[3,2-d]pyrimidin-6-yl}piperazin-1-yl]prop-2-en-1-one] | 5.71 nM |
| 329 nM | 21.9 nM | C=CC(=O)N1CCN(c2ccc3ncnc(Nc4ccc(Oc5ccc(C)nc5)c(C)c4)c3n2)CC1 [Compound 91, 1-(4-(4-(3-methyl-4-(6-methylpyridin-3-yloxy)phenylamino)pyrido[3,2-d]pyrimidin-6-yl)piperazin-1-yl)prop-2-en-1-one] | 17.5 nM |
| 2080 nM | 36.5 nM | Cc1cc(Nc2ncnc3ccc(N4CCN(C(=O)/C=C/CN(C)C)CC4)nc23)ccc1Cc1ccc2c(c1)ncn2C [Compound 120, (E)-4-(dimethylamino)-1-(4-(4-((3-methyl-4-((1-methyl-1H-benzo[d]imidazol-5-yl)methyl)phenyl)amino)pyrido[3,2-d]pyrimidin-6-yl)piperazin-1-yl)but-2-en-1-one] | 7.1 nM |
| 2390 nM | 30 nM | C=CC(=O)N1CCN(c2ccc3ncnc(Nc4ccc(Cc5ccn6ncnc6c5)c(C)c4)c3n2)CC1(C)C [Compound 131, 1-(4-(4-((4-([1,2,4]triazolo[1,5-a]pyridin-7-ylmethyl)-3-methylphenyl)amino)pyrido[3,2-d]pyrimidin-6-yl)-2,2-dimethylpiperazin-1-yl)prop-2-en-1-one] | 20 nM |
| > 10000 nM | 50.6 nM | C=CC(=O)N1CCN(c2cc3c(Nc4ccc(Cc5ccn6ncnc6c5)c(C)c4)ncnc3cn2)C[C@H]1C [Compound 52, (R)-1-(4-(4-((4-([1,2,4]triazolo[1,5-a]pyridin-7-ylmethyl)-3-methylphenyl)amino)pyrido[3,4-d]pyrimidin-6-yl)-2-methylpiperazin-1-yl)prop-2-en-1-one] | 120 nM |

More lines, now with the values behind:

| Structure (SMILES) | IC50 [1] | IC50 [2] | GI50 (Ba/F3 ERBB2 YVMA) |
| --- | --- | --- | --- |
| C=CC(=O)N1CC2CCC(C1)N2c1ccc2ncnc(Nc3ccc(Oc4ccn5ncnc5c4)c(C)c3)c2n1 [Compound 17, 1-(8-{4-[(3-methyl-4-{[1,2,4]triazolo[1,5-a]pyridin-7-yloxy}phenyl)amino]pyrido[3,2-d]pyrimidin-6-yl}-3,8-diazabicyclo[3.2.1]octan-3-yl)prop-2-en-1-one] | 179 nM | 20.1 nM | 5.91 nM |
| C=CC(=O)N1CCN(c2ccc3ncnc(Nc4ccc(Oc5ccn6ncnc6c5)c(C)c4)c3n2)[C@@H](C)C1 [Compound 12, 1-[(3S)-3-methyl-4-{4-[(3-methyl-4-{[1,2,4]triazolo[1,5-a]pyridin-7-yloxy}phenyl)amino]pyrido[3,2-d]pyrimidin-6-yl}piperazin-1-yl]prop-2-en-1-one] | 1180 nM | 13.6 nM | 7.49 nM |
| C=CC(=O)N1C2CC1CN(c1ccc3ncnc(Nc4ccc(Oc5ccn6ncnc6c5)c(C)c4)c3n1)C2 [Compound 15, 1-(3-{4-[(3-methyl-4-{[1,2,4]triazolo[1,5-a]pyridin-7-yloxy}phenyl)amino]pyrido[3,2-d]pyrimidin-6-yl}-3,6-diazabicyclo[3.1.1]heptan-6-yl)prop-2-en-1-one] | 629 nM | 19.8 nM | 17.4 nM |
| C=CC(=O)N1CC2CC1CN2c1ccc2ncnc(Nc3ccc(Oc4ccn5ncnc5c4)c(C)c3)c2n1 (stereo not drawn) [Compound 6, 1-(5-{4-[(3-methyl-4-{[1,2,4]triazolo[1,5-a]pyridin-7-yloxy}phenyl)amino]pyrido[3,2-d]pyrimidin-6-yl}-2,5-diazabicyclo[2.2.1]heptan-2-yl)prop-2-en-1-one] | 134 nM | 13.9 nM | 5.65 nM |
| C=CC(=O)N1CCN(c2ncc3ncnc(Nc4ccc(Oc5ccn6ncnc6c5)c(C)c4)c3n2)CC1 [Compound 45, 1-(4-{8-[(3-methyl-4-{[1,2,4]triazolo[1,5-a]pyridin-7-yloxy}phenyl)amino]pyrimido[5,4-d][1,3]diazin-2-yl}piperazin-1-yl)prop-2-en-1-one] | 667 nM | 9.23 nM | 4.5 nM |
| C=CC(=O)N1CCN(c2ccc3ncnc(Nc4ccc(Oc5ccc6c(c5)ncn6C)c(C)c4)c3n2)CC1 [Compound 14, 1-{4-[4-({3-methyl-4-[(1-methyl-1,3-benzodiazol-5-yl)oxy]phenyl}amino)pyrido[3,2-d]pyrimidin-6-yl]piperazin-1-yl}prop-2-en-1-one] | 403 nM | 14.3 nM | 7.83 nM |
| CC#CC(=O)N1C2CCC1CN(c1ccc3ncnc(Nc4ccc(Oc5ccn6ncnc6c5)c(C)c4)c3n1)C2 [Compound 27, 1-(3-{4-[(3-methyl-4-{[1,2,4]triazolo[1,5-a]pyridin-7-yloxy}phenyl)amino]pyrido[3,2-d]pyrimidin-6-yl}-3,8-diazabicyclo[3.2.1]octan-8-yl)but-2-yn-1-one] | 2800 nM | 60.4 nM | 27.4 nM |
